Assay results reported in patent US20160176894A1, “TAXANE AND ABEO-TAXANE ANALOGS” (Arbor Therapeutics, LLC, priority 2013, published 2016).
Like-named read-outs stand apart in the source and are kept apart here.

How the values were obtained:
CEM/VLB100 cells = experiment: MTT-based cytotoxicity assay, CEM/VLB100; assay type: cell-based, human; conditions: for Degree of resistance (CEM/VLB100): IC50 of the resistant line divided by IC50 of sensitive CEM cells; for IC50: vinblastine-resistant subline (MDR1)
Description: (§1) The second set of cells tested, CCRF-CEM or simply CEM, were derived from the blood of a patient with acute lymphobiastic leukemia. (Foley, G. E.; Lazarus, H.; Farber, S.; Uzman, B. G.; Boone, B. A.; McCarthy, R. E., Continuous Culture of Human Lymphoblasts from Peripheral Blood of a Child with Acute Leukemia. Cancer 1965, 18, 522-529). The subline CEM/VLB100 was developed to be resistant to up to vinblastine at 100 ng/ml. (Beck, W. T.; Mueller, T. J.; Tanzer, L. R., Altered surface membrane glycoproteins in Vinca alkaloid-resistant human leukemic lymphoblasts. Cancer Res. 1979, 39, 2070-2076). Drug resistance is achieved by overexpression of the MDR1 gene. Resistance in the CEM subline designated CEM/VM-1-5, however, is “atypical.” (Danks, M. K.; Yalowich, J. C.; Beck, W. T., Atypical multiple drug resistance in a human leukemic cell line selected for resistance to teniposide (VM-26). Cancer Res. 1987, 47, 1297-1301). The classes of drugs included in the “classic” multiple drug resistance phenotype are Vinca alkaloids, anthracyclines, epipodophyllotoxins and antibiotics. However, CEM/VM-1-5 cells retain sensitivity to the Vinca alkaloids despite resistance and cross-resistance to etoposide, anthracyclines and mitoxantrone. (Danks, M. K.; Schmidt, C. A.; Cirtain, M. C.; Suttle, D. P.; Beck, W. T., Altered catalytic activity of and DNA cleavage by DNA topoisomerase II from human leukemic cells selected for resistance to VM-26. Biochemistry 1988, 27, 8861-8869). Resistance in CEM/VM-1-5 cells is effected by over expression of the ABCC1 (MRP1) gene. CEM, CEM/VLB100 and CEM/VM-1-5 cells were obtained from Dr. WT Beck, University of Illinois at Chicago.

[1] = system: MES-SA uterine sarcoma line; experiment: MTT-based cytotoxicity assay, MES-SA; assay type: cell-based, human; conditions: sensitive parental line
Text: (§2) These lines included a uterine sarcoma line, MES-SA. (Harker, W. G.; MacKintosh, F. R.; Sikic, B. I., Development and characterization of a human sarcoma cell line, MES-SA, sensitive to multiple drugs. Cancer Res. 1983, 43, 4943-4950), and its doxorubicin-resistant subline, MES-SA/DxS. (Harker, W. G.; Sikic, B. I., Multidrug (pleiotropic) resistance in doxorubicin-selected variants of the human sarcoma cell line MES-SA. Cancer Res. 1985, 45, 4091-4096). […] However, resistance to bleomycin, cisplatin, carmustine, 5-fluorouracil or methotrexate is not observed. MES-SA/Dx5 cells express high levels of ABCB 1 (MDR1) mRNA and its gene product, the P-glycoprotein. MES-SA and MES-SA/Dx5 were purchased from the American Type Culture Collection (ATCC, Manassas, Va.).

CCRF-CEM (CEM) cells = experiment: MTT-based cytotoxicity assay, CEM; assay type: cell-based, human; conditions: sensitive parental line
Text: as §2, §1

[2] = system: MES-SA/Dx5 doxorubicin-resistant subline; experiment: MTT-based cytotoxicity assay, MES-SA/Dx5; assay type: cell-based, human; conditions: for Degree of resistance (MES-SA/Dx5): IC50 of the resistant line divided by IC50 of sensitive MES-SA cells; for IC50: MTT, multidrug resistant subline (MDR1/P-glycoprotein)
Text: as §2

A2680-DXR1 (MDR+) = experiment: MTS proliferation assay, A2680-DXR1; assay type: cell-based; conditions: 72 hr, read-out: MTS-6: 72 hr proliferation IC50, A2680-DXR1
Description: (§3) Day 1: Cells were plated in appropriate growth medium at 5×10^3 per well in 100 μL in 96 well tissue culture plates, Falcon, one plate for each drug to be tested. Column 1 was blank; it contained medium, but no cells. The plates were incubated overnight at 37° C. in 5% CO2 to allow attachment. Day 2: Drug diluted in culture media was added to the cells at a concentration of 0.005 nM to 10 μM in quadruplicate. After 48-72 hours of drug exposure, the MTS agent was added to all wells and incubated 1-6 hrs (37° C., 5% CO2), depending on cell type, as per CellTiter 96® AQueous Non-Radioactive Cell Proliferation Assay (MTS), Promega. Plates were processed using a Bio-Tek Synergy HT Multi-detection microtiter plate reader at 490 nanometer wavelength and data were processed with KC4V.3 software. Data plots of drug concentration vs. absorbance were plotted and IC50 values were extrapolated for each of the tested compounds.

HCT-15 (MDR+) = experiment: MTS proliferation assay, HCT-15; assay type: cell-based; conditions: read-out: MTS-6: 72 hr proliferation IC50, HCT-15
Description: as §3

[3] = system: cancer cell lines, both MDR expressing and non-MDR expressing; experiment: MTS proliferation assay, cell line panel (general statements); assay type: cell-based
Description: as §3

MV522 = experiment: MTS proliferation assay, MV522; assay type: cell-based; conditions: read-out: MTS-6: 72 hr proliferation IC50, MV522
Description: as §3

CEM/VM-1-5 cells = experiment: MTT-based cytotoxicity assay, CEM/VM-1-5; assay type: cell-based, human; conditions: for Degree of resistance (CEM/VM-1-5): IC50 of the resistant line divided by IC50 of sensitive CEM cells; for IC50: MTT, atypical MDR subline (ABCC1/MRP1)
Description: as §1

22Rv1 = experiment: MTS proliferation assay, 22Rv1; assay type: cell-based; conditions: read-out: MTS-6: 72 hr proliferation IC50, 22Rv1
Description: as §3

tubulin = tubulin protein assembly assay; assay type: biochemical; conditions: for ED50/ED50 (Paclitaxel): ratio to paclitaxel; for EC50: tubulin assembly, read-out: ED50 (the source's name)
MDAH2774 = experiment: MTS proliferation assay, MDAH2774; assay type: cell-based; conditions: read-out: MTS-6: 72 hr proliferation IC50, MDAH2774
Description: as §3

A2780-A5 = experiment: MTS proliferation assay, A2780-A5; assay type: cell-based; conditions: read-out: MTS-6: 72 hr proliferation IC50, A2780-A5
Description: as §3

KBV = experiment: MTS proliferation assay, KBV; assay type: cell-based; conditions: MDR positive
Description: as §3

KB = experiment: MTS proliferation assay, KB; assay type: cell-based; conditions: Homo sapiens, MDR negative, extrapolated outside tested range
Description: as §3

DU145 = experiment: MTS proliferation assay, DU145; assay type: cell-based; conditions: Homo sapiens, DU-145, MDR negative, extrapolated outside tested range
Description: as §3

SKNAS = experiment: MTS proliferation assay, SKNAS; assay type: cell-based; conditions: Homo sapiens, SK-N-AS, MDR negative, extrapolated outside tested range
Description: as §3

HT29 = experiment: MTS proliferation assay, HT29; assay type: cell-based; conditions: Homo sapiens, HT-29, MDR negative, extrapolated outside tested range
Description: as §3

MDAMB435s = experiment: MTS proliferation assay, MDAMB435s; assay type: cell-based; conditions: Homo sapiens, MDA-MB-435S, MDR negative, extrapolated outside tested range
Description: as §3

MV522/Mdr1 = experiment: MTS proliferation assay, MV522/Mdr1; conditions: read-out: IC50 MV522/Mdr1
Description: as §3

MESSA/DOX = experiment: MTS proliferation assay, MESSA/DOX; assay type: cell-based; conditions: Homo sapiens, MDR positive
Description: as §3

Compound | Degree of resistance (CEM/VLB100) (CEM/VLB100 cells) | IC50 (CEM/VLB100 cells; MTT) | IC50 [1] | IC50 (CCRF-CEM (CEM) cells) | Degree of resistance (MES-SA/Dx5) [2] | IC50 [2] | Degree of resistance (CEM/VM-1-5) (CEM/VM-1-5 cells) | IC50 (CEM/VM-1-5 cells) | ED50/ED50 (Paclitaxel) (tubulin) | EC50 (tubulin) | IC50 ([1]; Homo sapiens, MES-SA) | IC50 (CEM/VM-1-5 cells; Homo sapiens) | IC50 ([2]; Homo sapiens, MES-SA/Dx5) | other results
C=CC1OC2CC3OCC3(OC(C)=O)C3C(OC(=O)c4ccccc4)C4(O)CC(OC(=O)C(O)C(CC(C)C)NC(=O)OC(C)(C)C)C(C)=C(C(OC(C)=O)C(O1)C23C)C4(C)C (mixture of isomers) [10-αTX (14a.2)] | 3 ± 0.6 | 43 ± 23 nM | 30 ± 14 nM | 14 ± 5 nM | 1.1 ± 0.3 | 34 ± 24 nM |  |  |  |  |  |  |  | 
C=CC1OC2CC3OCC3(OC(C)=O)C3C(OC(=O)c4ccccc4)C4(C(C)(C)O)CC(OC(=O)C(O)C(CC(C)C)NC(=O)OC(C)(C)C)C(C)=C4C(OC(C)=O)C(O1)C23C (stereo not drawn) [10-αAT (15a.2)] | 4 ± 0 | 19 ± 9 nM | 9.5 ± 0.7 nM | 5 ± 3 nM | 1.6 ± 0.8 | 15 ± 8 nM | 1.3 ± 1.4 | 5 ± 4 nM | 0.53 | 1580 ± 460 nM |  |  |  | IC50 (A2680-DXR1 (MDR+)): 15 nM; IC50 (HCT-15 (MDR+); 72 hr): 2.4 nM; IC50 [3]: < 1000 nM; IC50 (MV522; 72 hr): 3.5 nM; IC50 (22Rv1; 72 hr): 5.7 nM; affinity for tubulin (in words) (tubulin; compared to several recognized tubulin binding agents): surprisingly great affinity for tubulin; IC50 (MDAH2774; 72 hr): 0.18 nM; IC50 (A2780-A5; 72 hr): 0.282 nM
C=C[C@H]1O[C@H]2C[C@H]3OC[C@@]3(OC(C)=O)[C@H]3[C@H](OC(=O)c4ccccc4)[C@]4(C(C)(C)O)C[C@H](OC(=O)[C@H](O)[C@H](CC(C)C)NC(=O)OC(C)(C)C)C(C)=C4[C@@H](OC(C)=O)[C@H](O1)[C@]23C [10-βAT (15b.2)] | 4 ± 0.3 | 453 ± 293 nM | 432 ± 261 nM | 112 ± 60 nM | 0.75 ± 0.07 | 328 ± 173 nM | 0.9 ± 0.5 | 77 ± 6 nM |  |  |  |  |  | 
C=CC1OC2CC3OCC3(OC(C)=O)C3C(OC(=O)c4ccccc4)C4(O)CC(OC(=O)C(O)C(CC(C)C)NC(=O)OC(C)(C)C)C(C)=C(C(OC(C)=O)C(O1)C23C)C4(C)C (stereo not drawn) [10-βTX (14b.2), 10-beta taxane acrolein acetal] | 3 ± 1 |  |  |  | 1.2 ± 0.5 |  | 1.2 ± 0.3 |  |  |  | 28 ± 16 nM | 9 ± 1 nM | 36 ± 34 nM | IC50 (CEM/VLB100 cells; Homo sapiens, CEM/VLB100, MTT): 22 ± 11 nM; IC50 (CCRF-CEM (CEM) cells; Homo sapiens, CCRF-CEM): 7.5 ± 0.7 nM
CC(=O)O[C@@]12CO[C@@H]1C[C@H](O)[C@@]1(C)C(=O)[C@H](O)C3=C(C)[C@@H](OC(=O)[C@H](O)[C@@H](NC(=O)OC(C)(C)C)c4ccccc4)C[C@@](O)([C@@H](OC(=O)c4ccccc4)[C@H]21)C3(C)C [Docetaxel] |  |  |  |  |  |  |  |  | 1.07 | 3180 ± 450 nM |  |  |  | 
CC(=O)O[C@H]1C(=O)[C@@]2(C)[C@H]([C@H](OC(=O)c3ccccc3)[C@]3(O)C[C@H](OC(=O)[C@H](O)[C@@H](NC(=O)c4ccccc4)c4ccccc4)C(C)=C1C3(C)C)[C@]1(OC(C)=O)CO[C@@H]1C[C@@H]2O [Paclitaxel] |  | 3030 nM |  |  | 3105 ± 2416 |  | 4 | 8 nM |  |  | 9 ± 7 nM | < 11 nM | 19400 ± 204 nM | IC50 (A2680-DXR1 (MDR+)): 3580 nM; IC50 (KBV): ≥ 500 nM; IC50 (KB): < 0.002 nM; IC50 (DU145): < 0.002 nM; IC50 (SKNAS): < 0.002 nM; IC50 (HT29): < 0.002 nM; IC50 (MDAMB435s): < 0.002 nM; IC50 (HCT-15 (MDR+); Homo sapiens, HCT-15, 72 hr): 311 nM; IC50 (MV522/Mdr1): ≥ 500 nM; IC50 (MV522; MV522, 72 h): 1.71 nM; IC50 (22Rv1; Homo sapiens, 22Rv1, 72 h): 1.7 nM; IC50 (MDAH2774; Homo sapiens, MDAH 2774, 72 h): 0.015 nM; IC50 (MESSA/DOX): ≥ 500 nM; IC50 (A2780-A5; 72 h): < 0.002 nM
CC[C@]1(O)C[C@@H]2CN(CCc3c([nH]c4ccccc34)[C@@](C(=O)OC)(c3cc4c(cc3OC)N(C)[C@H]3[C@@](O)(C(=O)OC)[C@H](OC(C)=O)[C@]5(CC)C=CCN6CC[C@]43[C@@H]65)C2)C1 [Vinblastine] | 255 ± 127 |  |  |  | 38.5 ± 0.7 |  | 1.2 ± 0.07 |  |  |  | […] | 1.3 ± 0.9 nM | 43 ± 12 nM | IC50 (CEM/VLB100 cells; Homo sapiens, CEM/VLB100, MTT): 227 ± 77 nM; IC50 (CCRF-CEM (CEM) cells; Homo sapiens, CCRF-CEM): 1 ± 0.8 nM
Doxorubicin | 150 | 2100 nM | 2 nM | 14 nM | 49 | 97 nM | 219 | 3060 nM |  |  |  |  |  | 
